In data set [1] the test system is 2019 novel coronavirus (SARS-CoV-2) original strain. Description: Replication inhibitory activity against SARS-CoV-2 original strain in Vero E6 cells (qRT-PCR). Type of data set: cell-based. Particulars: read-out: Inhibition against viral replication of the original strain EC50. In general terms: Real-time PCR tracks product formation cycle by cycle.
Data set [2] concerns ALM12 hepatocytes. Description: Anti H2O2-induced necrotic injury assay in ALM12 hepatocytes (microscopy, CCK-8). Type of data set: cell-based. Particulars: 2 mM H2O2, 1 μM compound, 3 hours, microscope and CCK-8. The protocol:
In this example, the effect of the compounds of the present invention on the level of necrotic injury induced by H2O2 in ALM12 hepatocytes was analyzed by microscopic morphological observations, cell viability in combination with cell death-associated molecules. Cell viability was analyzed by CCK-8 assay. ALM12 cells were cultured in 1640 medium (gibco, c11995500BT)+10% FBS (gibco, 10099141C) in a constant temperature incubator at 37° C., 5% CO2; the CCK-8 kit was purchased from Meilunbio, item no. MA0218-3; H2O2 was purchased from Sinopharm Chemical Reagent Co. item no. 10011208.
Experimental methods: first, 8000 cells/well ALM12 cells were placed in 96-well plates and incubated overnight. On the second day, 0.1% DMSO was added to the control cells, 2 mM H2O2 as well as 0.1% DMSO was added to the model group, 2 mM H2O2 as well as 1 μM of the compounds (oxy, 1, 2, tet, 3, 4, 6, 58) was added to the treatment group, and the 96-well plates were sterilized and incubated in a constant temperature incubator for 3 hours. Finally, cell injury and growth were observed using a microscope; the viability of the cells was detected by CCK-8 kit.

The target of data set [3] is novel coronavirus envelope protein (2-E) ion channel (Severe acute respiratory syndrome coronavirus 2, UniProt P0DTC4). Briefly: Novel coronavirus envelope protein (2-E) ion channel activity test, planar lipid bilayer (BLM). The data set is classed as biochemical, SARS-CoV-2. The conditions noted are these: room temperature, 1, 10, 50, 100 μM, read-out: Inhibition against 2-E ion channels IC50.
Sequence of novel coronavirus envelope protein (2-E) ion channel (P0DTC4 whole entry, looked up): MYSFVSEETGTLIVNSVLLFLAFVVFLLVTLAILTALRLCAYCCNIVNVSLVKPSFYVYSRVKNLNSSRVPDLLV

Data set [4] relates to Raw 264.7 cells. Description: Cell viability in LPS-induced inflammation model of Raw 264.7 cells (CCK-8). The conditions noted are these: 1 μg/ml LPS, 1 μM compound, 16 hours. Type of data set: cell-based. The protocol: In this example, the effect of the compounds of the present invention on the inflammation level of the LPS-induced inflammation model of Raw 264.7 cells was analyzed by cell viability in combination with inflammatory factors; cell viability was analyzed by CCK-8 assay; and mRNA expression levels of inflammation-related indicators were detected by a real-time quantitative PCR (Q-PCR) method. Raw 264.7 cells were purchased from ATCC; CCK-8 kit was purchased from Meilunbio, item no. MA0218-3; LPS was purchased from Sigma, item no. L2630.
Experimental methods: first, 8000 cells/well Raw 264.7 cells were placed in 96-well plates and incubated overnight. On the second day, 0.1% DMSO was added to the control cells, 1 μg/ml LPS as well as 0.1% DMSO was added to the model group, 1 μg/ml LPS as well as 1 μM of the compounds (oxyacanthine hydrochloride (oxy), 1, 2, tetrandrine (tet), 3, 4, 6, 58) was added to the treatment group, and the 96-well plates were sterilized and incubated in a constant temperature incubator for 16 hours. Finally, the viability of the cells was detected using the CCK-8 kit.

Data set [5] deals with carbon tetrachloride-induced acute liver fibrosis. Briefly: Carbon tetrachloride-induced acute liver fibrosis in mice. Type of data set: in vivo, C57BL/6 mice. The conditions noted are these: for liver fibrosis indicators (Collagen1, α-SMA) by WB assay: 30 mg/kg orally once a day for 6 days, CCl4 0.6 ml/kg i.p. D1, D3, D5; for effect on CCl4-induced acute liver fibrosis in mice: oral administration, 30 mg/kg. The protocol:
In this example, the effect of the compounds of the present invention on the carbon tetrachloride-induced acute liver fibrosis model was analyzed by tissue observation, fibrosis indicators, HE and Sirius red staining; the injury of mice was determined by body weight testing and tissue bright-field photographing; the protein expression levels of fibrosis-related indicators were detected by WesternBlot assay; and the fibrosis progression was analyzed by HE and Sirius red staining. C57BL/6 mice were purchased from SLAC; CCl4 was purchased from Sinopharm Chemical Reagent Co, Ltd, item no. 10006464; olive oil was purchased from Sinopharm, item no. 69018028; primary antibody: Collagen was purchased from ARG21965, item no. arigobio; α-smooth muscle actin was purchased from CST, item no. mAb #19245; VIMENTN was purchased from CST, item no. mAb #5741; GAPDH was purchased from Yeasen, item no. mAb #30201ES20.
Solution preparation: CCl4 was diluted with olive oil (1:9, vol:vol) and the compounds were configured with 85% saline+5% DMSO+5% HS-15+5% PEG400 as solvents toa concentration of 3 mg/ml.
Construction of fibrosis model mice: […] C57 mice were randomly divided into […] after 1 week of adaptive feeding: blank group, model group, and 2 treatment groups; with 6 experimental animals in the blank group and 8 experimental animals in each of the remaining 3 groups. Except for the blank group, the remaining three groups were injected intraperitoneally with CCl4 (0.6 ml/kg) in D1, D3, and D5, respectively, and the blank group was injected intraperitoneally with olive oil at the same time. At the same time of modeling, mice in the treatment group were continuously administered by gavage for 6 days, once a day, 2 h after the injection of CC14, and the treatment group was administered orally 30 mg/kg of Compound 2 or Compound 4; mice in the blank group and the model group were given an equal amount of saline by intraperitoneal injection, and the mice were euthanized 24 h after the last administration of CCl4 for test. A portion of the liver tissue was cut to appropriate size and placed in 4% PFA, −80° C. refrigerator for subsequent detection of pathological changes in tissue sample slices, and WB assay, respectively.
Detection methods: 1. After autopsy, liver in situ photos were taken; 2. Liver tissue was retained and lysed using RIPA to extract proteins for WB detection; 3. HE staining as well as Sirius red detection were performed when liver tissue sections were fixed.

“Also recorded” adds a separate entry of the source. Read-outs that look alike come from different tables or passages of the source.

As usually defined, the EC50 is the concentration at which the effect is half-maximal. As a reminder, the IC50 is the concentration that gives 50% inhibition.

Turning to `CCCCNC(=O)Oc1ccc2cc1Oc1ccc(cc1)C[C@H]1c3c(cc(OC)c(OC)c3Oc3cc4c(cc3OC)CCN(C)[C@@H]4C2)CCN1C` [Compound 2], the concentration for a half-maximal effect (EC50) in data set [1] (Severe acute respiratory syndrome coronavirus 2, Vero C1008, 24 h) fell in the range of 100 to 1000 nM. In addition, the “alleviation of H2O2-induced ALM12 hepatocyte injury” value in data set [2] was “significantly alleviated”. Also, in data set [3], the IC50 was less than 10000 nM. In addition, the “cell viability in LPS-induced inflammation model” value in data set [4] is reported as “did not affect cell viability”. In data set [5], the “liver fibrosis indicators (Collagen1, α-SMA) by WB assay” value is given as “down-regulated” and the “effect on CCl4-induced acute liver fibrosis in mice” value was “alleviated; also recorded: mitigative effect”.
Take `COc1cc2c3cc1Oc1c(OC)c(OC)cc4c1[C@H](Cc1ccc(cc1)Oc1cc(ccc1C(N)=O)C[C@H]3N(C)CC2)N(C)CC4` [Compound 4]: in data set [1] (Severe acute respiratory syndrome coronavirus 2, Vero C1008, Vero E6 cells, MOI 0.01, 24 h p.i., viral copy number by qRT-PCR), the concentration giving a half-maximal response (EC50) was in the range of 100 to 1000 nM. In data set [2], the “alleviation of H2O2-induced ALM12 hepatocyte injury” value is reported as “significantly alleviated”. Besides, the concentration for half-maximal inhibition (IC50) in data set [3] was less than 1000 nM. The “cell viability in LPS-induced inflammation model” value in data set [4] is given as “did not affect cell viability”. In addition, in data set [5], the “liver fibrosis indicators (Collagen1, α-SMA) by WB assay” value is listed as “down-regulated” and the “effect on CCl4-induced acute liver fibrosis in mice” value is given as “alleviated; also recorded: mitigative effect”.
